Results from PMC10175918 (Communications Biology, 2023).
Like-named read-outs stand apart in the source and are kept apart here.

Legend:
Assay in all cases: TGFα-shedding assay-based GPCR screening with chimeric Gα subunit proteins
Type in all cases: cell-based
348 GPCRs [1] = biological target: 348 GPCRs (Homo sapiens, UniProt P28223); conditions: 10µM, Favipiravir 100μM
348 GPCRs [2] = biological target: T1, 348 GPCRs (Homo sapiens, UniProt P32249); conditions: EBI2 (G protein-coupled receptor 183 (Epstein-Barr Virus Induced Gene 2)); 10µM, Favipiravir 100μM
T1 construct: expressed in transfected cells; host or cells: HEK293A
T1 sequence (P32249 whole entry): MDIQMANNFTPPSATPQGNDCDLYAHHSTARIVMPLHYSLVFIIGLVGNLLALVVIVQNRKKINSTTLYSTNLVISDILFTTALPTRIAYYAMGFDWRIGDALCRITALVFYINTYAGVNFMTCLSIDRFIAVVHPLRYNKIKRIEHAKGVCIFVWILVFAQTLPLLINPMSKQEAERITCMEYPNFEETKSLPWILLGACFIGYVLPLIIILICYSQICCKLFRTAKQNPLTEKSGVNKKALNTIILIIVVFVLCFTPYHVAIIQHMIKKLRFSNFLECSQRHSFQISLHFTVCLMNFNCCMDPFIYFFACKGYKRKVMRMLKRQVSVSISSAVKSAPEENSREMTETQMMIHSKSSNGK

348 GPCRs [3] = biological target: 348 GPCRs (Homo sapiens, UniProt P47872); conditions: SCTR (secretin receptor); 10µM, Favipiravir 100μM
Sequence of 348 GPCRs (Homo sapiens, UniProt P47872) (P47872 23-440): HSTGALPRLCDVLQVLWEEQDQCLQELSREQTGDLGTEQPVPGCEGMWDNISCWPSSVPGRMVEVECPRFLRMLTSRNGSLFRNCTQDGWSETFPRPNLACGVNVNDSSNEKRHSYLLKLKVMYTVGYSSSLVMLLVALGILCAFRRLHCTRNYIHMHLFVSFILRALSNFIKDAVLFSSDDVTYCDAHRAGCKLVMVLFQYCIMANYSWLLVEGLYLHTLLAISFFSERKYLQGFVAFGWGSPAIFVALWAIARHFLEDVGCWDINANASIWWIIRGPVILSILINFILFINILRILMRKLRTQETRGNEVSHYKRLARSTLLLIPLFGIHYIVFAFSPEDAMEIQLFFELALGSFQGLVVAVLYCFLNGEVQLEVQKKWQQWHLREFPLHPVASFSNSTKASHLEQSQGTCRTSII

348 GPCRs [4] = biological target: T2, 348 GPCRs (Homo sapiens, UniProt P51686); conditions: 10µM, Favipiravir 100μM
T2 construct: expressed in transfected cells; host or cells: HEK293A
T2 sequence (P51686 1-369): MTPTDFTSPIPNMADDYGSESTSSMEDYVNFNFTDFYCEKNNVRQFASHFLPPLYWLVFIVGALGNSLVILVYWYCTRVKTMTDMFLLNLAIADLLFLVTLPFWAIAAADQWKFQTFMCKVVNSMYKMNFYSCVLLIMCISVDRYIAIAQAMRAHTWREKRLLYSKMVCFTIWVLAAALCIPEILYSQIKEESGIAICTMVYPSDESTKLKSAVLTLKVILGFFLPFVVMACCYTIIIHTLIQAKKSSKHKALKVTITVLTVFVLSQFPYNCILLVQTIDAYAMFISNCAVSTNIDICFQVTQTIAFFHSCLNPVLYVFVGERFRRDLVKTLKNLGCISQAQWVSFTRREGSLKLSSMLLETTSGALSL

348 GPCRs [5] = biological target: T3, 348 GPCRs (Homo sapiens, UniProt P55085); conditions: 10µM, Favipiravir 100μM
T3 construct: expressed in transfected cells; host or cells: HEK293A
T3 sequence (P55085 26-397): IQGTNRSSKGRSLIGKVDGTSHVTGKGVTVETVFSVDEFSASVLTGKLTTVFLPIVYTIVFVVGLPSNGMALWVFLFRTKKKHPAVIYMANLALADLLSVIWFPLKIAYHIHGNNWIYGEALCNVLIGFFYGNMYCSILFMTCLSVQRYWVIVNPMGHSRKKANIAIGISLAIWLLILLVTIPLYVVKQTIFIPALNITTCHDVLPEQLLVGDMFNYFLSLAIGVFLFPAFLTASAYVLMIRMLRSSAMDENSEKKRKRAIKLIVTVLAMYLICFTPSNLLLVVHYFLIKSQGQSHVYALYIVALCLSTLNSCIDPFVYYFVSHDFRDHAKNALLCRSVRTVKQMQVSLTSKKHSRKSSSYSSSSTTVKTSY

348 GPCRs [6] = biological target: T4, 348 GPCRs (Homo sapiens, UniProt Q01726)
T4 construct: expressed in transfected cells; host or cells: HEK293A
T4 sequence (Q01726 whole entry): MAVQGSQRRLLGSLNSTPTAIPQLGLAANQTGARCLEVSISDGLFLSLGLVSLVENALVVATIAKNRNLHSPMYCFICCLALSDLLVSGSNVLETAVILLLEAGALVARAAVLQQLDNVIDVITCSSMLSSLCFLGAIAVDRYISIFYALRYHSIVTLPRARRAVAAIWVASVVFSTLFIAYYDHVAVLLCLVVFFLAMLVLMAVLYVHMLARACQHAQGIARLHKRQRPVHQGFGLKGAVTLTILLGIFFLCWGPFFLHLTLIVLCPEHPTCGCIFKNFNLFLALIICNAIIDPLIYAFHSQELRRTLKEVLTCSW

348 GPCRs [7] = biological target: T5, 348 GPCRs (Homo sapiens, UniProt Q6U736); conditions: 10µM, Favipiravir 100μM
T5 construct: expressed in transfected cells; host or cells: HEK293A
T5 sequence (Q6U736 whole entry): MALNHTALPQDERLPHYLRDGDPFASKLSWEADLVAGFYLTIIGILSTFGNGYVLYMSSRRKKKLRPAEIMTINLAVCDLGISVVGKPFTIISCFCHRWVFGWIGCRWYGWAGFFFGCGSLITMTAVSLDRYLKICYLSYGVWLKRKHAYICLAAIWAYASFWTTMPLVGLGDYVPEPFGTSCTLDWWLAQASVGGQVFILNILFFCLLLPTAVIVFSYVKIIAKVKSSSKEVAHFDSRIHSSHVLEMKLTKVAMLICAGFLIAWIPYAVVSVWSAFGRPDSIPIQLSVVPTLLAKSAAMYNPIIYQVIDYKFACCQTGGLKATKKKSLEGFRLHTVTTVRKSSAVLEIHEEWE

348 GPCRs [8] = biological target: T6, 348 GPCRs (Homo sapiens, UniProt Q86SQ6)
T6 construct: expressed in transfected cells; host or cells: HEK293A
T6 sequence (Q86SQ6 1-560): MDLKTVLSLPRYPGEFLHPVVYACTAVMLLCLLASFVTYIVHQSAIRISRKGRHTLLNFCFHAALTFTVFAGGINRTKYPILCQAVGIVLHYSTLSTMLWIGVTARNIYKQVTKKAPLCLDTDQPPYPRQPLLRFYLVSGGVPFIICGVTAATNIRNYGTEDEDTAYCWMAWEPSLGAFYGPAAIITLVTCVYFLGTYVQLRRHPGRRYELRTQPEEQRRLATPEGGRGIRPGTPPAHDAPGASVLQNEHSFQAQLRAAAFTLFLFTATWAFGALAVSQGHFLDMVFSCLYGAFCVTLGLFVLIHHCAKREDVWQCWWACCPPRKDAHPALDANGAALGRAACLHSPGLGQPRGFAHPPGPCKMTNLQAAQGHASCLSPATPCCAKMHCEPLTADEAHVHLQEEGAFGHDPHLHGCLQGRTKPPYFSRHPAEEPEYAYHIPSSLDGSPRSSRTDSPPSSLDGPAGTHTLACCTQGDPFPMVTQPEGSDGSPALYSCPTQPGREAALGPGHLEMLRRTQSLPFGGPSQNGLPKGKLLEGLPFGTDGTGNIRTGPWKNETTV

348 GPCRs [9] = biological target: T7, 348 GPCRs (Homo sapiens, UniProt Q9BY21); conditions: 10µM, Favipiravir 100μM
T7 construct: expressed in transfected cells; host or cells: HEK293A
T7 sequence (Q9BY21 whole entry): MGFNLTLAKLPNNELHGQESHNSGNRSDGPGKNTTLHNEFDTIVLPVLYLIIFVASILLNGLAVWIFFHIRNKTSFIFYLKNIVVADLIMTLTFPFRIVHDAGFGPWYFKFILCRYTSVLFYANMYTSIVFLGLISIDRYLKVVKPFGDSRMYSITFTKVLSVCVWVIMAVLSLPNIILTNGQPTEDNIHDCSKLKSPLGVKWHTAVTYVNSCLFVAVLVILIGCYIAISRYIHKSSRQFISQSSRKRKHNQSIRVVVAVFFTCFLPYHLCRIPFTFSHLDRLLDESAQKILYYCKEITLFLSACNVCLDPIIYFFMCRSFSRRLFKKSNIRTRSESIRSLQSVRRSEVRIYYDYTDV

348 GPCRs [10] = biological target: T8, 348 GPCRs (Homo sapiens, UniProt Q9UKP6); conditions: 10µM, Favipiravir 100μM
T8 construct: expressed in transfected cells; host or cells: HEK293A
T8 sequence (Q9UKP6 1-389): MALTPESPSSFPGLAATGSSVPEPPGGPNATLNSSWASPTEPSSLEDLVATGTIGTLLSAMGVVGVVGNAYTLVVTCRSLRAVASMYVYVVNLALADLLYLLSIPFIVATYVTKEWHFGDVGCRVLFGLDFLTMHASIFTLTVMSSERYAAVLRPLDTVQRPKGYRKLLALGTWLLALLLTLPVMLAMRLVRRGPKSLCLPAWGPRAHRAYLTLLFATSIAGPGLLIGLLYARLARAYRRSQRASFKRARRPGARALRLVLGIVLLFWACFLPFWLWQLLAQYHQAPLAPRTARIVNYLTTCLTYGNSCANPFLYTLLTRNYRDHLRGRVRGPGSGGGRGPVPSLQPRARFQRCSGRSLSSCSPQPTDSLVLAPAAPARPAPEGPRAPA

[11] = 5-HT2A (5-hydroxytryptamine receptor 2A), read-out: % GPCR activation compared to TPA
[12] = CCR9 (chemokine (C-C motif) receptor 9), read-out: % GPCR activation compared to TPA
[13] = F2RL1 (coagulation factor II (thrombin) receptor-like 1), read-out: % GPCR activation compared to TPA
[14] = GPCR MC1R (melanocyte-stimulating hormone receptor), read-out: % GPCR activation compared to TPA
[15] = OPN5 (opsin 5), read-out: % GPCR activation compared to TPA
[16] = GPCR GPR123 (Adhesion G Protein-Coupled Receptor A1 (ADGRA1)), read-out: % GPCR activation compared to TPA
[17] = GPR87 (G Protein-Coupled Receptor 87), read-out: % GPCR activation compared to TPA
[18] = UTS2R (urotensin 2 receptor), read-out: % GPCR activation compared to TPA
[19] = read-out: % GPCR activation compared to TPA, 5-HT2A (5-hydroxytryptamine receptor 2A)
[20] = read-out: % GPCR activation compared to TPA, CCR9 (chemokine (C-C motif) receptor 9)
[21] = read-out: % GPCR activation compared to TPA, F2RL1 (coagulation factor II (thrombin) receptor-like 1)
[22] = read-out: % GPCR activation compared to TPA, GPCR MC1R (melanocyte-stimulating hormone receptor)
[23] = read-out: % GPCR activation compared to TPA, OPN5 (opsin 5)
[24] = read-out: % GPCR activation compared to TPA, GPCR GPR123 (Adhesion G Protein-Coupled Receptor A1 (ADGRA1))
[25] = read-out: % GPCR activation compared to TPA, GPR87 (G Protein-Coupled Receptor 87)
[26] = read-out: % GPCR activation compared to TPA, UTS2R (urotensin 2 receptor)

Sequence of 348 GPCRs (Homo sapiens, UniProt P28223) (P28223 whole entry): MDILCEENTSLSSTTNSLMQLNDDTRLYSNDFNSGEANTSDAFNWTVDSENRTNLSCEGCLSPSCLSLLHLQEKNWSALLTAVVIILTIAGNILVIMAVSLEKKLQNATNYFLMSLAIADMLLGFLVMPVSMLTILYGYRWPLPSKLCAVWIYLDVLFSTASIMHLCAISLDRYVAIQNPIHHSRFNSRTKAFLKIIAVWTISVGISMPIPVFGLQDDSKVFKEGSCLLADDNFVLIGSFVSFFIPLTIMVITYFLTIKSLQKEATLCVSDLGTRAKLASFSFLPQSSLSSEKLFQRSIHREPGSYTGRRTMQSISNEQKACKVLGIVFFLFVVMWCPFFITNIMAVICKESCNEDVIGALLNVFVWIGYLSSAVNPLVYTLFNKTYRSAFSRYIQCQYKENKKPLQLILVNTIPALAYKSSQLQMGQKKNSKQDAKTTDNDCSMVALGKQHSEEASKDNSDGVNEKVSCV

| activation at 100 µM (348 GPCRs [1]; [11]) | % GPCR activation compared to TPA (348 GPCRs [2]) | % GPCR activation compared to TPA (348 GPCRs [3]) | activation at 10 µM (348 GPCRs [4]; [12]) | activation at 10 µM (348 GPCRs [5]; [13]) | activation at 10 µM (348 GPCRs [6]; [14]) | activation at 100 µM (348 GPCRs [7]; [15]) | activation at 10 µM (348 GPCRs [8]; [16]) | activation at 100 µM (348 GPCRs [9]; [17]) | activation at 10 µM (348 GPCRs [10]; [18]) | activation at 100 µM (348 GPCRs [6]; GPCR MC1R (melanocyte-stimulating hormone receptor), 100μM, read-out: % GPCR activation compared to TPA) | activation at 100 µM (348 GPCRs [8]; GPCR GPR123 (Adhesion G Protein-Coupled Receptor A1 (ADGRA1)), 100μM, read-out: % GPCR activation compared to TPA) | SMILES | activation at 100 µM (348 GPCRs [1]; [19]) | activation at 10 µM (348 GPCRs [4]; [20]) | activation at 10 µM (348 GPCRs [5]; [21]) | activation at 10 µM (348 GPCRs [6]; [22]) | activation at 100 µM (348 GPCRs [7]; [23]) | activation at 10 µM (348 GPCRs [8]; [24]) | activation at 100 µM (348 GPCRs [9]; [25]) | activation at 10 µM (348 GPCRs [10]; [26]) |
| --- | --- | --- | --- | --- | --- | --- | --- | --- | --- | --- | --- | --- | --- | --- | --- | --- | --- | --- | --- | --- |
| -1.21% | -1.471% | 0.8944% | 2.4% | 0.132% | 0.496% | -1.77% | 0.375% | -3.93% | -11.4% | – | – | N#C[C@@]1(c2ccc3c(N)ncnn23)O[C@H](CO)[C@@H](O)[C@H]1O [GS441524] | – | – | – | – | – | – | – | – |
| 2.2% | -1.156% | -0.5125% | 2.47% | -2.7% | – | -1.8% | – | -4.67% | -4.11% | -0.375% | -1.45% | NC(=O)c1nc(F)cnc1O [favipiravir, 6-fluoro-3-hydroxy-2-pyrazinecarboxamide] | – | – | – | – | – | – | – | – |

The remaining lines, values behind:

| SMILES | activation at 100 µM (348 GPCRs [1]; [11]) | % GPCR activation compared to TPA (348 GPCRs [2]) | % GPCR activation compared to TPA (348 GPCRs [3]) | activation at 10 µM (348 GPCRs [4]; [12]) | activation at 10 µM (348 GPCRs [5]; [13]) | activation at 10 µM (348 GPCRs [6]; [14]) | activation at 100 µM (348 GPCRs [7]; [15]) | activation at 10 µM (348 GPCRs [8]; [16]) | activation at 100 µM (348 GPCRs [9]; [17]) | activation at 10 µM (348 GPCRs [10]; [18]) | activation at 100 µM (348 GPCRs [6]; GPCR MC1R (melanocyte-stimulating hormone receptor), 100μM, read-out: % GPCR activation compared to TPA) | activation at 100 µM (348 GPCRs [8]; GPCR GPR123 (Adhesion G Protein-Coupled Receptor A1 (ADGRA1)), 100μM, read-out: % GPCR activation compared to TPA) | activation at 100 µM (348 GPCRs [1]; [19]) | activation at 10 µM (348 GPCRs [4]; [20]) | activation at 10 µM (348 GPCRs [5]; [21]) | activation at 10 µM (348 GPCRs [6]; [22]) | activation at 100 µM (348 GPCRs [7]; [23]) | activation at 10 µM (348 GPCRs [8]; [24]) | activation at 100 µM (348 GPCRs [9]; [25]) | activation at 10 µM (348 GPCRs [10]; [26]) |
| --- | --- | --- | --- | --- | --- | --- | --- | --- | --- | --- | --- | --- | --- | --- | --- | --- | --- | --- | --- | --- |
| CC(C)C(=O)OC[C@H]1O[C@@H](n2ccc(NO)nc2=O)[C@H](O)[C@@H]1O [molnupiravir] | -0.697% | -0.8417% | -0.08366% | -1.34% | -1.8% | 0.0444% | -2.56% | -2.47% | 0.11% | -8.44% | – | – | – | – | – | – | – | – | – | – |
| CCC(CC)COC(=O)[C@H](C)N[P@](=O)(OC[C@H]1O[C@@](C#N)(c2ccc3c(N)ncnn23)[C@H](O)[C@@H]1O)Oc1ccccc1 [remdesivir] | – | 0.4815% | -0.9507% | – | – | – | – | – | – | – | – | – | 4.22% | -0.902% | -1.25% | -0.549% | -2.25% | -0.903% | -0.159% | 46.9% |
| CC(C)OC(=O)[C@H](C)N[P@](=O)(OC[C@H]1O[C@@H](n2ccc(=O)[nH]c2=O)[C@](C)(F)[C@@H]1O)Oc1ccccc1 [sofosbuvir] | – | -0.7581% | 0.153% | – | – | – | – | – | – | – | – | – | -1.66% | -0.977% | 0.0736% | 0.575% | -0.631% | 0.445% | 2.98% | -2.85% |
